molecular target: T1, MKK7 (Homo sapiens (Human), UniProt O14733); experiment: In vitro competitive binding assay (kinase-tagged phage / qPCR); conditions: 11-point 3-fold dilution series; Hill slope set to -1
Method: Kinase-tagged T7 phage strains were prepared in an E. coli host derived from the BL21 strain. E. coli were grown to log-phase and infected with T7 phage and incubated with shaking at 32° C. until lysis. The lysates were centrifuged and filtered to remove cell debris. The remaining kinases were produced in HEK-293 cells and subsequently tagged with DNA for qPCR detection. Streptavidin-coated magnetic beads were treated with biotinylated small molecule ligands for 30 minutes at room temperature to generate affinity resins for kinase assays. The liganded beads were blocked with excess biotin and washed with blocking buffer (SeaBlock (Pierce), 1% BSA, 0.05% Tween 20, 1 mM DTT) to remove unbound ligand and to reduce non-specific binding. […] Kds were determined using an 11-point 3-fold compound dilution series with three DMSO control points. […] The kinase concentration in the eluates was measured by qPCR.
An 11-point 3-fold serial dilution of each test compound was prepared in 100% DMSO at 100× final test concentration and subsequently diluted to 1× in the assay (final DMSO concentration=1%). Most Kds were determined using a compound top concentration=30,000 nM. […]
Binding constants (Kds) were calculated with a standard dose-response curve using the Hill equation: […]

T1 sequence (O14733 whole entry): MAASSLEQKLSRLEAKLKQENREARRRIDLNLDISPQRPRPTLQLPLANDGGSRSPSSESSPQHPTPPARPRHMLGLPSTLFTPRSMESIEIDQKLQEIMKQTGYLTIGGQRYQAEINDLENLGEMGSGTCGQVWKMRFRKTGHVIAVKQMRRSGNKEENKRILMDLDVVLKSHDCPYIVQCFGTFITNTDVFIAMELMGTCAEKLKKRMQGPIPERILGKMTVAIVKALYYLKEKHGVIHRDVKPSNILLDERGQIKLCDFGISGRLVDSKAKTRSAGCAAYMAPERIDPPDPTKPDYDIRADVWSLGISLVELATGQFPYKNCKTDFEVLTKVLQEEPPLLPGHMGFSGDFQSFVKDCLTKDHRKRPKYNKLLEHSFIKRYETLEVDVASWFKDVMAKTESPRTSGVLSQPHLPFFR

Kd [nM] | Structure (SMILES)
7.8 | C=CC(=O)N1CCc2ccc(-c3n[nH]c4cc(C)ccc34)cc21 [Compound 4, 1-[6-(6-methyl-1H-indazol-3-yl)-2,3-dihydroindol-1-yl]prop-2-en-1-one]
71 | C=CC(=O)N1CCCc2ccc(-c3n[nH]c4cc(C)ccc34)cc21 [Compound 12, 1-[7-(6-methyl-1H-indazol-3-yl)-3,4-dihydro-2H-quinolin-1-yl]prop-2-en-1-one]

molecular target: T1, MKK7; experiment: MKK7 ADP-Glo in vitro pharmacology assay; format: biochemical; conditions: calculated from remaining activity (%)
Method: A study was conducted to determine the pharmacology of Compounds 1-18 in vitro in a plurality of biological matrices. Compounds 1-18 were prepared into proper concentrations of DMSO solution. The compound stock was then serially diluted into 10 concentrations by 3-fold dilution in 384 pp-plate. 5 nL of compound stock was transferred to a 384 plate. The compound stock was then diluted to 0.74 nM using a solution, which contained 0.79 mL of water, 0.2 mL of 5× Buffer, 2 μL of DTT, 6.66 μL of 7.5% BSA, and 5 μL of 10 mM ATP, to form an MKK7 mixture. The MKK7 mixture was then pre-warmed and 2.5 μL was added to each well designated for the “Test compound” and “High control” well, 2.5 μL solution 1 to each well designated for the “Low control” well. The well was incubated for 30 min and centrifuged at room temperature. Following centrifugation, 5 μL of ADD-Glo Reagent was added to each well and incubated for 60 min after centrifugation at room temperature. 10 μL of ADP-Glo Detection was then added to each well and incubated for 30 min after centrifugation in dark at room temperature. IC50 values were calculated based on the remaining activity (%) using read conversion ratio (CR).

Structure (SMILES) | IC50 [nM]
C=CS(=O)(=O)N1CCc2ccc(-c3n[nH]c4ncccc34)cc21 [Compound 16, 1-(ethenesulfonyl)-6-{1H-pyrazolo[3,4-b]pyridin-3-yl}-2,3-dihydroindole] | 7.7
C=CC(=O)N1CCc2ccc(-c3n[nH]c4cc(C)ccc34)cc21 [Compound 4, 1-[6-(6-methyl-1H-indazol-3-yl)-2,3-dihydroindol-1-yl]prop-2-en-1-one] | 23
C=CC(=O)N1c2cc(-c3n[nH]c4ncccc34)ccc2CC1C (stereo not drawn) [Compound 15, 1-[2-methyl-6-{1H-pyrazolo [3,4-b]pyridin-3-yl}-2,3-dihydroindol-1-yl]prop-2-en-1-one] | 440
C=CC(=O)N1CCCc2ccc(-c3n[nH]c4cnccc34)cc21 [Compound 10, 1-(7-{1H-pyrazolo[3,4-c]pyridin-3-yl}-3,4-dihydro-2H-quinolin-1-yl)prop-2-en-1-one] | 550
N#C/C=C/C(=O)N1CCc2ccc(-c3n[nH]c4ccccc34)cc21 [Compound 5, (2E)-4-[6-(1H-indazol-3-yl)-2,3-dihydroindol-1-yl]-4-oxobut-2-enenitrile] | 70
C=CC(=O)N1CCc2ccc(-c3n[nH]c4ncccc34)c(F)c21 [Compound 17, 1-(7-fluoro-6-{1H-pyrazolo[3,4-b]pyridin-3-yl}-2,3-dihydroindol-1-yl)prop-2-en-1-one] | 88
C=CC(=O)N1CCOc2ccc(-c3n[nH]c4ccccc34)cc21 [Compound 13, 1-[6-(1H-indazol-3-yl)-2,3-dihydro-1,4-benzoxazin-4-yl]prop-2-en-1-one] | 140
C=CC(=O)N1CCc2c(-c3n[nH]c4ccccc34)cccc21 [Compound 2, 1-[4-(1H-indazol-3-yl)-2,3-dihydroindol-1-yl]prop-2-en-1-one] | 92
C=CC(=O)N1CCc2ccc(-c3n[nH]c4cc(C#N)ccc34)cc21 [Compound 18, 3-[1-(prop-2-enoyl)-2,3-dihydroindol-6-yl]-1H-indazole-6-carbonitrile] | 6
C=CC(=O)N1CCCc2ccc(-c3n[nH]c4cc(C)ccc34)cc21 [Compound 12, 1-[7-(6-methyl-1H-indazol-3-yl)-3,4-dihydro-2H-quinolin-1-yl]prop-2-en-1-one] | 160
C=CC(=O)N1CCc2ccc(-c3n[nH]c4cnccc34)cc21 [Compound 1, 1-(6-{1H-pyrazolo[3,4-c]pyridin-3-yl}-2,3-dihydroindol-1-yl)prop-2-en-1-one] | 4.8
C=CC(=O)N1CCc2ccc(-c3n[nH]c4ccccc34)cc21 [Compound 14, 1-[6-(1H-indazol-3-yl)-2,3-dihydroindol-1-yl]prop-2-en-1-one] | 19

Continued, values first:

IC50 [nM] | Structure (SMILES)
1100 | C/C=C/C(=O)N1CCc2ccc(-c3n[nH]c4ccccc34)cc21 [Compound 9, (2E)-1-[6-(1H-indazol-3-yl)-2,3-dihydroindol-1-yl]but-2-en-1-one]
3900 | CCOC(=O)/C=C/C(=O)N1CCc2ccc(-c3n[nH]c4ccccc34)cc21 [Compound 7, ethyl (2E)-4-[6-(1H-indazol-3-yl)-2,3-dihydroindol-1-yl]-4-oxobut-2-enoate]
840 | C=C(F)C(=O)N1CCc2ccc(-c3n[nH]c4ccccc34)cc21 [Compound 8, 2-fluoro-1-[6-(1H-indazol-3-yl)-2,3-dihydroindol-1-yl]prop-2-en-1-one]
160 | C=CC(=O)N1c2cc(-c3n[nH]c4ncccc34)ccc2C[C@@H]1C [Compound 15-B]
180 | CN(C)C/C=C/C(=O)N1CCc2ccc(-c3n[nH]c4ccccc34)cc21 [Compound 6, (2E)-4-(dimethylamino)-1-[6-(1H-indazol-3-yl)-2,3-dihydroindol-1-yl]but-2-en-1-one]
30 | C=CC(=O)N1CCc2ccc(-c3n[nH]c4ccncc34)cc21 [Compound 3, 1-(6-{1H-pyrazolo[4,3-c]pyridin-3-yl}-2,3-dihydroindol-1-yl)prop-2-en-1-one]
1400 | C=CC(=O)N1CCCc2ccc(-c3n[nH]c4ccncc34)cc21 [Compound 11, 1-(7-{1H-pyrazolo[4,3-c]pyridin-3-yl}-3,4-dihydro-2H-quinolin-1-yl)prop-2-en-1-one]
